Consider one compound from patent publication US10087421B2, “Stem cell suspension” (OTSUKA PHARMACEUTICAL FACTORY, INC., priority 2010, dated 2018).

Series [1] relates to hAT-MSC P3 and hBM-MSC P3. The experiment in a line: Cell morphology, culture after standing and survival, results not separated by cell type. The series is classed as cell-based, human. The note with it: trehalose in HESPANDER; 36 hr (Example 6). The protocol:
The cells obtained by passaging hAT-MSCs and hBM-MSCs three times (hAT-MSC P3 and hBM-MSC P3) were plated on 10-cm dishes. The cells were washed three times with 5-ml PBS(−) per 10-cm dish, and detached by treating with 1-ml trypsin-EDTA (0.25% trypsin, 1 mM EDTA·4Na) for 20 sec into a single-cell state. […] After standing at room temperature (about 25° C.) for 240 min or 24 hr, the survival rate of the cells was measured, and the cell aggregation and morphology were observed. Furthermore, after standing for 240 min or 24 hr, the cells were further cultured for 12 hr and the cell morphology was observed.
hAT-MSCs and hBM-MSCs were passaged three times and the obtained cells (hAT-MSCs P3 and hBM-MSCs P3) were plated on 10 cm-dishes. The cells were washed three times with 5-ml PBS(−) per 10-cm dish, and detached by treating with 1-ml trypsin-EDTA (0.25% trypsin, 1 mM EDTA·4Na) for 20 sec into a single-cell state. The obtained cells (hAT-MSCs P3, 4.25×10^5 cells; survival rate, 97.5%: hBM-MSCs P3, 5.0×10^5 cells; survival rate, 98.2%) were transferred to a 15-ml FALCON tube, recovered by centrifugation, washed twice with PBS(−), and suspended in the following composition solution (100 μL). After standing at room temperature (about 25° C.) for 8 hr or 36 hr, the survival rate of the cells was measured and the cell aggregation was observed.

The test system of series [2] is Swine subcutaneous adipose tissue-derived mesenchymal stem cells (Pig AT-MSCs). Put plainly: Microscopic observation of cell aggregate mass and cell floating state. The series is classed as cell-based. Conditions: from dilution series of ET-K with saline; Pig AT-MSCs P2; 25° C. As for the experimental part:
The suspension was left standing at each temperature (0, 25, and 37° C.), pipetted several times with 20 μL PIPETMAN 0, 30, 60, 120 and 240 min later, and 10 μL thereof was transferred to a dish. A stereomicroscope was focused on the lowermost surface of the suspension on the dish, and observation was performed. The cells forming a mass with adjacent cells under the microscope were taken as cell aggregate mass. The cell aggregate mass was confirmed to be obviously moving as a mass by shaking the dish on the stage of the microscope. The swine subcutaneous adipose tissue-derived mesenchymal stem cells prepared in Example 1 were passaged twice and the obtained cells (Pig AT-MSCs P2) were plated on three 10 cm-dishes. The cells were washed three times with 5 ml PBS(−) per 10 cm dish, and detached by treating with 1 ml trypsin-EDTA (0.25% trypsin, 1 mM EDTA·4Na) for 20 sec into a single-cell state. […] Thereafter, in the same manner as in Example 1, the survival rate was calculated and the presence or absence of the cell aggregate mass was observed. […] Thereafter, in the same manner as in Example 1, the survival rate was calculated and the presence or absence of a cell aggregate mass was observed. […]

Series [3] deals with hAT-MSCs P8 and hBM-MSCs P6. The experiment in a line: Survival rate, cell aggregation and floating after standing for 1 hr (Example 7). It counts as cell-based, human. Conditions: about 25° C. The protocol: hAT-MSCs and hBM-MSCs were passaged 6 or 8 times and the obtained cells (hAT-MSCs P8 and hBM-MSCs P6) were plated on 10 cm-dishes. The cells were washed three times with 5-ml HESPANDER (KYORIN Pharmaceutical Co., Ltd.) per 10-cm dish, and detached by treating with 1-ml trypsin-EDTA (0.25% trypsin, 1 mM EDTA·4Na) for 20 sec into a single-cell state. The obtained cells (hAT-MSCs P8, 2.4×10^6 cells; hBM-MSCs P6, 2.3×10^6 cells) were transferred to a 15-ml FALCON tube, recovered by centrifugation, and suspended in the following composition solution. After standing at room temperature (about 25° C.) for 1 hr, the survival rate of the cells was measured and the cell aggregation was observed.

SMILES strings stand for the structures.

For the compound `OC[C@H]1O[C@H](O[C@H]2O[C@H](CO)[C@@H](O)[C@H](O)[C@H]2O)[C@H](O)[C@@H](O)[C@@H]1O` [trehalose], the “trehalose concentration suggested to be preferable to increase the cell survival rate” value in series [1] was “not more than 181.2 mg/mL”. Moreover, in series [2], the “trehalose concentration at which a stem cell aggregation suppressive effect is exhibited” value is reported as “not less than 15.1 mg/ml” and the “trehalose concentration at which the stem cells float stably” value is on record as “at least 15.1 mg/ml”. In series [3], the “cell aggregation suppressive effect” value is “observed”, the cell floating effect result is given as “observed” and the “protrusion from the cell / on the cell surface” value was “suppressed”. Also, the cell survival rate entry in series [3] (added to HESPANDER) was “higher than by adding HESPANDER (H) alone”. For the same compound, the “effect on the cytotoxicity of fucoidan” value in series [3] (trehalose with 10 μg/ml fucoidan in HESPANDER) is “tendency to suppress the cytotoxicity of fucoidan”.
